Columns and labels:
human CSNK1D = molecular target: T1, human CSNK1D (Homo sapiens, UniProt P48730); experiment: Whole Cell nBRET CSNK1D Binding Assay; conditions: living CHO cells stably expressing human CSNK1D tagged with nanoluciferase; NanoBret tracer 130 nM; 2 hours at 37 C
T1 construct: expressed in transfected cells

[1] = molecular target: T2, human recombinant GST cleaved CSNK1D (Homo sapiens, UniProt P48730); experiment: Purified Enzyme Assay (ADP-Glo CSNK1D Kinase Assay); format: biochemical; conditions: 2 nM CSNK1D; peptide substrate 150 μM; ATP 20 μM; 45 minutes at room temperature
T2 construct: GST (cleaved yes); purchased University of Dundee clone DU 19064
T2 sequence (P48730 whole entry): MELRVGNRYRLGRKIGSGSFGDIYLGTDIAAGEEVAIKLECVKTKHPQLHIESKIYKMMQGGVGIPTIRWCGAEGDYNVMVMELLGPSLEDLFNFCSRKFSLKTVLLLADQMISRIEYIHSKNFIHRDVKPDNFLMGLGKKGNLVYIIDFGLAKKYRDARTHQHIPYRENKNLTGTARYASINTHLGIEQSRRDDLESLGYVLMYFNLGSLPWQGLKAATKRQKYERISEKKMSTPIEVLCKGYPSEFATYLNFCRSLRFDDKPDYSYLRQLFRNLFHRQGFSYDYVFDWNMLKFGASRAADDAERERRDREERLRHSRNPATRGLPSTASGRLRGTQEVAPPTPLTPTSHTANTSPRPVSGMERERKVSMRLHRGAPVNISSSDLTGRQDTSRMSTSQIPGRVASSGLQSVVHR
Summary of the method: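 GST-cleaved human recombinant CSNK1D phosphorylates peptide PLSRTL-pS-VASLPGL with ATP; compounds added in dose-response, 45 min at room temperature. ADP formed measured by ADP-Glo luminescence and converted to percent activity.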

T1 sequence (P48730 whole entry): as above

Compound | IC50 (human CSNK1D) [nM] | IC50 [1] [nM]
Cc1nc2[nH]nc(C)c2c(-c2c(-c3ccc(F)cn3)nn3c2CC[C@H]2[C@@H]3C2(F)F)c1F (single isomer, unassigned) [Example 360, (5a*S,6a*R)-6,6-Difluoro-3-(5-fluoro-3,6-dimethyl-1H-pyrazolo[3,4-b]pyridin-4-yl)-2-(5-fluoropyridin-2-yl)-5,5a,6,6a-tetrahydro-4H-cyclopropa[e]pyrazolo[1,5-a]pyridine] | 70 | 7
CCC(=O)Nc1cc(-c2c(-c3ccc(F)cc3)nn3c2OCC2(CC2)C3)ccn1 [Example 455, N-(4-(2′-(4-Fluorophenyl)-5′H,7′H-spiro[cyclopropane-1,6′-pyrazolo[5,1-b][1,3]oxazin]-3′-yl)pyridin-2-yl)propionamide] | 1 | 1
Fc1ccc(-c2nn3c(c2-c2ccnc4[nH]ncc24)CC[C@H]2[C@@H]3C2(F)F)cc1 (stereo in doubt) [Example 355, (5a*S,6a*R)-6,6-Difluoro-2-(4-fluorophenyl)-3-(1H-pyrazolo[3,4-b]pyridin-4-yl)-5,5a,6,6a-tetrahydro-4H-cyclopropa[e]pyrazolo[1,5-a]pyridine] | 27 | 9
Cc1cc(-c2c(-c3ccc(F)cn3)nn3c2CO[C@H](C)C3)c2cn[nH]c2n1 (single isomer, unassigned) [Example 87, (*R)-2-(5-Fluoro-2-pyridyl)-6-methyl-3-(6-methyl-1H-pyrazolo[3,4-b]pyridin-4-yl)-6,7-dihydro-4H-pyrazolo[5,1-c][1,4]oxazine] | 162 | 13
[2H]C([2H])([2H])C1(C([2H])([2H])[2H])Cn2nc(-c3ccc(F)cn3)c(-c3cc(C)nc4[nH]ncc34)c2CO1 [Example 401, 2-(5-Fluoropyridin-2-yl)-6,6-bis(methyl-d3)-3-(6-methyl-1H-pyrazolo[3,4-b]pyridin-4-yl)-6,7-dihydro-4H-pyrazolo[5,1-c][1,4]oxazine] | 43 | 4
Cc1cc(-c2c(-c3ccc(F)cc3)nn3c2C[C@@H]2C[C@@H]23)c2cn[nH]c2n1 [Example 270] | 8 | 1
COc1cccc(-c2nn3c(c2-c2ccnc4[nH]ncc24)COC(C)(C)C3)n1 [Example 161, 2-(6-Methoxypyridin-2-yl)-6,6-dimethyl-3-(1H-pyrazolo[3,4-b]pyridin-4-yl)-6,7-dihydro-4H-pyrazolo[5,1-c][1,4]oxazine] | 1400 | 26
Fc1ccc(-c2nn3c(c2-c2ccnc4[nH]ncc24)CCC2(C3)CC2(F)F)nc1 (single isomer, unassigned) [Example 327, (*S)-2,2-Difluoro-2′-(5-fluoropyridin-2-yl)-3′-(1H-pyrazolo[3,4-b]pyridin-4-yl)-4′,5′-dihydro-7′H-spiro[cyclopropane-1,6′-pyrazolo[1,5-a]pyridine]] | 97 | 14
CC1(C)Cn2nc(-c3ccc(F)cn3)c(-c3ccn4ncc(N)c4c3)c2CO1 [Example 381, 5-[2-(5-Fluoro-2-pyridyl)-6,6-dimethyl-4,7-dihydropyrazolo[5,1-c][1,4]oxazin-3-yl]pyrazolo[1,5-a]pyridin-3-amine] | 228 | 64
C[C@@H]1OCc2c(-c3ccnc4[nH]ncc34)c(-c3ccc(F)cn3)nn2[C@H]1C (stereo in doubt) [Example 119, (6*S,7*S)-2-(5-Fluoropyridin-2-yl)-6,7-dimethyl-3-(1H-pyrazolo[3,4-b]pyridin-4-yl)-6,7-dihydro-4H-pyrazolo[5,1-c][1,4]oxazine] | 751 | 32
Fc1ccc(-c2nn3c(c2-c2ccnc4[nH]ncc24)C[C@@H]2C[C@@H]23)nc1 [Example 26, (4aS,5aS)-2-(5-Fluoropyridin-2-yl)-3-(1H-pyrazolo[3,4-b]pyridin-4-yl)-4,4a,5,5a-tetrahydrocyclopropa[4,5]pyrrolo[1,2-b]pyrazole] | 32 | 4
Fc1ccc(-c2nn3c(c2-c2ccnc4[nH]ncc24)CC2(C3)CC2(F)F)cc1 (single isomer, unassigned) [Example 251, (*R)-1′,1′-Difluoro-2-(4-fluorophenyl)-3-(1H-pyrazolo[3,4-b]pyridin-4-yl)spiro[4,6-dihydropyrrolo[1,2-b]pyrazole-5,2′-cyclopropane]] | 185 | 26
Cc1cc(-c2c(-c3ccc(F)cn3)nn3c2CC[C@H]3C)c2cn[nH]c2n1 [Example 21, 4-[(6R)-2-(5-Fluoro-2-pyridyl)-6-methyl-5,6-dihydro-4H-pyrrolo[1,2-b]pyrazol-3-yl]-6-methyl-1H-pyrazolo[3,4-b]pyridine] | 353 | 14
Cc1nc(-c2c(-c3ccc(F)cc3)nn3c2CCC(F)(F)C3)c2cn[nH]c2n1 [Example 279, 4-[6,6-Difluoro-2-(4-fluorophenyl)-5,7-dihydro-4H-pyrazolo[1,5-a]pyridin-3-yl]-6-methyl-1H-pyrazolo[3,4-d]pyrimidine] | 74 | 5
COC1(C)COCc2c(-c3ccnc4[nH]ncc34)c(-c3ccc(F)cn3)nn2C1 (single isomer, unassigned) [Example 485, (*S)-2-(5-Fluoropyridin-2-yl)-7-methoxy-7-methyl-3-(1H-pyrazolo[3,4-b]pyridin-4-yl)-7,8-dihydro-4H,6H-pyrazolo[5,1-c][1,4]oxazepine] | 8060 | 370
Fc1ccc(-c2nn3c(c2-c2ccnc4[nH]ncc24)[C@H](Cl)C[C@]2(C3)CC2(F)F)nc1 (single isomer, unassigned) [Example 338, (1*S,4′*R)-4′-Chloro-2,2-difluoro-2′-(5-fluoropyridin-2-yl)-3′-(1H-pyrazolo[3,4-b]pyridin-4-yl)-4′,5′-dihydro-7′H-spiro[cyclopropane-1,6′-pyrazolo[1,5-a]pyridine]] | 72 | 5
Fc1ccc(-c2nn3c(c2-c2ccnc4[nH]ncc24)CC[C@@H]2[C@H]3C2(F)F)cc1 (stereo in doubt) [Example 356, (5a*R,6a*S-6,6-Difluoro-2-(4-fluorophenyl)-3-(1H-pyrazolo[3,4-b]pyridin-4-yl)-5,5a,6,6a-tetrahydro-4H-cyclopropa[e]pyrazolo[1,5-a]pyridine] | 2 | 1
COC[C@]1(F)CCc2c(-c3cc(C)nc4[nH]ncc34)c(-c3ccc(F)cn3)nn2C1 (single isomer, unassigned) [Example 53, (*S)-4-(6-Fluoro-2-(5-fluoropyridin-2-yl)-6-(methoxymethyl)-4,5,6,7-tetrahydropyrazolo[1,5-a]pyridin-3-yl)-6-methyl-1H-pyrazolo[3,4-b]pyridine] | 31 | 4
Cc1cc(-c2c(-c3ccc(F)cc3)nn3c2COCC3)c2cn[nH]c2n1 [Example 71, 2-(4-Fluorophenyl)-3-(6-methyl-1H-pyrazolo[3,4-b]pyridin-4-yl)-6,7-dihydro-4H-pyrazolo[5,1-c][1,4]oxazine] | 21 | 2
Fc1ccc(-c2nn3c(c2-c2ccnc4cn[nH]c24)OCC(F)(F)C3)cc1 [Example 468, 6,6-Difluoro-2-(4-fluorophenyl)-3-(1H-pyrazolo[4,3-b]pyridin-7-yl)-5,7-dihydropyrazolo[5,1-b][1,3]oxazine] | 187 | 25
